# According to patent US8772343B2, “Chemical compounds” (Pfizer Limited, priority 2010, dated 2014):
# Structures can show the parent of a compound that is named as a salt.
# Molecular target: T1, Nav1.7 (or SCN9A) channel (Homo sapiens, UniProt Q15858)
# T1 construct: expressed in transfected cells
# Test: Nav1.7 PatchXpress automated whole-cell electrophysiology in HEK cells expressing hSCN9A
# Format: cell-based
# Settings: estimated IC50 from single point data, PatchXpress assay, held at V1/2 of inactivation, read-out: Nav1.7 EIC50
# Procedure, shortened: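 Stably transfected HEK cells recorded by whole-cell patch clamp (conventional or PatchXpress) at room temperature (22-24 °C) in pH 7.4 HEPES-buffered saline. Current evoked by a 20 msec step to 0 mV after an 8 s prepulse at the measured inactivation V1/2. Single-concentration % inhibition converted to estimated IC50 (EIC50); inhibition values <20% or >80% excluded.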
# T1 sequence (Q15858 whole entry): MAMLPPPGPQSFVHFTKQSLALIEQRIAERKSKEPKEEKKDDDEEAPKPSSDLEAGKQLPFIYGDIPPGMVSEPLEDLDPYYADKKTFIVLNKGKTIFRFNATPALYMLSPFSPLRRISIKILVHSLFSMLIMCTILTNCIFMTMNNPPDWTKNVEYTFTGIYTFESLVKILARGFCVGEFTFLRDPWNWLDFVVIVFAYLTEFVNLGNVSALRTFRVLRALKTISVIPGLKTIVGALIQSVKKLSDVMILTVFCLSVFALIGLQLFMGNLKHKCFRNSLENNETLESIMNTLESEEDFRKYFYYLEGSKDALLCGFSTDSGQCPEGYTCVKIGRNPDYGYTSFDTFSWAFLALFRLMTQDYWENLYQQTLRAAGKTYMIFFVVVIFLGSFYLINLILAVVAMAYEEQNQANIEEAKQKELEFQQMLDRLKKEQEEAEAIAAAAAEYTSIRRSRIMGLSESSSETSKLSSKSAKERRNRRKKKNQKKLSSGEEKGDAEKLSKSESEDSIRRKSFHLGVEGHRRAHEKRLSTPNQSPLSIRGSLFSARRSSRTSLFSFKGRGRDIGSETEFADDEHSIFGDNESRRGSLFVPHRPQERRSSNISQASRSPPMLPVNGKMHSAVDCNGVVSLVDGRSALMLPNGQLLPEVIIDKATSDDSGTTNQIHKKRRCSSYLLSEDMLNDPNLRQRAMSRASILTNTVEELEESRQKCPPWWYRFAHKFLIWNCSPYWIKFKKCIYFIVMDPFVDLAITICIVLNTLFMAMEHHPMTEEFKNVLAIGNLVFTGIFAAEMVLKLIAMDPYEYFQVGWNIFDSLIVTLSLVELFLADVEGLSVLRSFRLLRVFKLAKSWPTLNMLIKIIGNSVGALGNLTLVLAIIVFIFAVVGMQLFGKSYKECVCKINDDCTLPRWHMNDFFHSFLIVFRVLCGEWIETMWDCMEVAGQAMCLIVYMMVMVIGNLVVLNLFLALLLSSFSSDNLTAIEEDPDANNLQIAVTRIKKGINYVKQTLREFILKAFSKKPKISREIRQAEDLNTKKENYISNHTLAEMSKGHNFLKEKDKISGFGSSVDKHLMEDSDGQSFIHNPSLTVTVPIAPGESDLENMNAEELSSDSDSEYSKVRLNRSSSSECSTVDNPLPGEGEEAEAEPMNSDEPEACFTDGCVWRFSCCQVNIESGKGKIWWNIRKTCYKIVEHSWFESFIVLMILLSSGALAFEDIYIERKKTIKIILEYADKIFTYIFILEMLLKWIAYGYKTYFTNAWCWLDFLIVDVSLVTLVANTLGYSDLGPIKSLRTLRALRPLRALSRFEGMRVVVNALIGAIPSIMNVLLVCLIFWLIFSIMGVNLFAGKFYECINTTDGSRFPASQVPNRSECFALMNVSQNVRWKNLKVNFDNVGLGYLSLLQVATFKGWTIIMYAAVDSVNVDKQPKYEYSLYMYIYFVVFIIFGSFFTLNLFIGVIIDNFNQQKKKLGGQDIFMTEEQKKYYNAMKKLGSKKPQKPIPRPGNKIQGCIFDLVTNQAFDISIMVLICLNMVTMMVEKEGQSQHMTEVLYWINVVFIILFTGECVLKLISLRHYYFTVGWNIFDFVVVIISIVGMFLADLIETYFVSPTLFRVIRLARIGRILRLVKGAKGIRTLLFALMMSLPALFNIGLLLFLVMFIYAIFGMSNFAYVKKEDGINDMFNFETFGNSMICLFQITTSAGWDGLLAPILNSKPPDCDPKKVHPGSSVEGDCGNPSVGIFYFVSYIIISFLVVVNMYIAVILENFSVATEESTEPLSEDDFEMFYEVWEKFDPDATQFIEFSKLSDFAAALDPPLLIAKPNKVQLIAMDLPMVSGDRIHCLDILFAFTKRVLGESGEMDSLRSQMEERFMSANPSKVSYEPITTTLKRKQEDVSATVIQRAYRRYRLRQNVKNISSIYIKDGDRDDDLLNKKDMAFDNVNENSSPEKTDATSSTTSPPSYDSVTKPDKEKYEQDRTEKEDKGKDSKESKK
row,IC50 [µM],SMILES
1,0.68,"COc1ncccc1-c1cc(C(=O)NS(C)(=O)=O)ccc1Oc1ccc(F)cc1 [Example 91, 4-(4-fluorophenoxy)-3-(2-methoxypyridin-3-yl)-N-(methylsulfonyl)benzamide]"
2,0.038,"COc1ncccc1-c1cc(C(=O)NS(C)(=O)=O)ccc1Oc1ccc(C(C)C)cc1 [Example 92, 4-(4-isopropylphenoxy)-3-(2-methoxypyridin-3-yl)-N-(methylsulfonyl)benzamide]"
3,0.066,"COc1ncccc1-c1cc(C(=O)NS(C)(=O)=O)ccc1Oc1ccc(OC(F)(F)F)cc1 [Example 93, 3-(2-methoxypyridin-3-yl)-N-(methylsulfonyl)-4-[4-(trifluoromethoxy)phenoxy]benzamide]"
4,0.4,"COc1ncccc1-c1cc(C(=O)NS(C)(=O)=O)ccc1Oc1cnc(C2CC2)c(Cl)c1 [Example 94, 4-(5-chloro-6-cyclopropylpyridin-3-yloxy)-3-(2-methoxypyridin-3-yl)-N-(methylsulfonyl)benzamide]"
5,0.1,"CCc1cc(Oc2ccc(C(=O)NS(C)(=O)=O)cc2-c2ccn[nH]2)ccc1Cl [Example 95, 4-(4-chloro-3-ethylphenoxy)-N-(methylsulfonyl)-3-(1H-pyrazol-5-yl)benzamide hydrochloride salt]"

# Molecular target: T1, Nav1.7 (or SCN9A) channel
# Test: Nav1.7 Ionworks Quattro automated electrophysiology in HEK cells expressing hSCN9A
# Format: cell-based
# Settings: estimated IC50, values marked (IW), Ionworks Quattro assay, read-out: Nav1.7 EIC50 (IW)
# Experimental: The ability of the compounds of formula (I) to block the Nav1.7 (or SCN9A) channel were measured using the assay described below. Human Embryonic Kidney (HEK) cells were transfected with an hSCN9A construct using lipofectamine reagent (Invitrogen), using standard techniques. Cells stably expressing the hSCN9A constructs were identified by their resistance to G-418 (400 μg/ml). Clones were screened for expression using the whole-cell voltage-clamp technique. HEK cells stably transfected with hSCN9A were maintained in DMEM medium supplemented with 10% heat-inactivated fetal bovine serum and 400 μg/ml G-418 in an incubator at 37° C. with a humidified atmosphere of 10% CO2. For HTS, cells were harvested from flasks by trypsinization and replated in an appropriate multi-well plate (typically 96 or 384 wells/plate) such that confluence would be achieved within 24 hours of plating. For electrophysiological studies, cells were removed from the culture flask by brief trypsinization and re-plated at low density onto glass cover slips. Cells were typically used for electrophysiological experiments within 24 to 72 hours after plating. Electrophysiological assays were also conducted using the Ionworks Quattro automated electrophysiological platform (Molecular Devices Corp). Intracellular and extracellular solutions were as described above with the following changes, 120 μg/ml amphotericin was added to the intracellular solution to perforate the membrane and allow electrical access to the cells. hSCN9A cells were grown and harvested as for PatchXpress and cells were resuspended in extracellular solution at a concentration of 1×10^6 cells/ml. The onboard liquid handling facility of the Ionworks Quattro was used for dispensing cells and application of test compounds. A voltage protocol was then applied that comprised of a voltage step to fully inactivate the sodium channels, followed by a brief hyperpolarized recovery period to allow partial recovery from inactivation for unblocked sodium channels, followed by a test depolarized voltage step to assess magnitude of inhibition by test compound. Compound effect was determined based on current amplitude difference between the pre-compound addition and post-compound addition scans. Compounds of the Examples were tested in the assays described above and found to have the Nav1.7 EIC50 (uM) values specified in the table below. All data are derived from the PatchXpress assay unless expressly stated otherwise.
row,IC50 [µM],SMILES
1,24,"CS(=O)(=O)NC(=O)c1ccc(Oc2ccc(Cl)cc2)c(-c2cccc(C(F)(F)F)c2)c1 [Example 13, 6-(4-chlorophenoxy)-N-(methylsulfonyl)-3′-(trifluoromethyl)biphenyl-3-carboxamide]"
2,13,"CS(=O)(=O)NC(=O)c1ccc(Oc2ccc(Cl)cc2)c(-c2cccc(F)c2)c1 [Example 17, 6-(4-chlorophenoxy)-3′-fluoro-N-(methylsulfonyl)-biphenyl-3-carboxamide]"
3,28,"CS(=O)(=O)NC(=O)c1ccc(Oc2ccc(Cl)cc2)c(-c2cccnc2)c1 [Example 19, 4-(4-chlorophenoxy)-N-(methylsulfonyl)-3-pyridin-3-ylbenzamide]"
4,15,"CS(=O)(=O)NC(=O)c1ccc(Oc2ccc(Cl)cc2)c(-c2cccc(Cl)c2)c1 [Example 22, 3′-chloro-6-(4-chlorophenoxy)-N-(methylsulfonyl)-biphenyl-3-carboxamide]"
5,10,"CS(=O)(=O)NC(=O)c1ccc(Oc2ccc(Cl)cc2)c(-c2ccc(C#N)cc2)c1 [Example 25, 6-(4-chlorophenoxy)-4′-cyano-N-(methylsulfonyl)-biphenyl-3-carboxamide]"
6,17,"CS(=O)(=O)NC(=O)c1ccc(Oc2ccc(Cl)cc2)c(-c2cccc(C#N)c2)c1 [Example 26, 6-(4-chlorophenoxy)-3′-cyano-N-(methylsulfonyl)-biphenyl-3-carboxamide]"
7,16,"CS(=O)(=O)NC(=O)c1ccc(Oc2ccc(Cl)cc2)c(-c2cccc(OC(F)(F)F)c2)c1 [Example 28, 6-(4-chlorophenoxy)-N-(methylsulfonyl)-3′-(trifluoromethoxy)biphenyl-3-carboxamide]"
8,18,"CS(=O)(=O)NC(=O)c1ccc(Oc2ccc(Cl)cc2)c(-c2cn[nH]c2)c1 [Example 30, 4-(4-chlorophenoxy)-N-(methylsulfonyl)-3-(1H-pyrazol-4-yl)benzamide]"
9,69,"COc1ncc(-c2cc(C(=O)NS(C)(=O)=O)ccc2Oc2ccc(Cl)cc2)cn1 [Example 40, 4-(4-chlorophenoxy)-3-(2-methoxypyrimidin-5-yl)-N-(methylsulfonyl)benzamide]"
10,17,"CS(=O)(=O)NC(=O)c1ccc(Oc2ccc(Cl)cc2)c(-c2cncc(C#N)c2)c1 [Example 44, 4-(4-chlorophenoxy)-3-(5-cyanopyridin-3-yl)-N-(methylsulfonyl)benzamide]"
11,151,"Cc1ncc(-c2cc(C(=O)NS(C)(=O)=O)ccc2Oc2ccc(Cl)cc2)cn1 [Example 46, 4-(4-chlorophenoxy)-3-(2-methylpyrimidin-5-yl)-N-(methylsulfonyl)benzamide]"
